Test results as given in patent publication EP4692091A1, “CA[…], AND PHARMACEUTICAL COMPOSITION, PREPARATION METHOD THEREFOR AND USE THEREOF” (Changchun Genescience Pharmaceutical Co., Ltd., priority 2023, dated 2024).

How the values were obtained:
[1] = Stability of compounds in human plasma; format: in vitro ADME; conditions: 37°C, 5 µmol/L, read-out: Residual percentage (%)
[2] = Stability of compounds in human plasma; format: in vitro ADME; conditions: 37°C, 5 µmol/L; for Residual percentage (%): 0 h; for remaining at 1 h, 5 µM / remaining at 2 h, 5 µM / remaining at 6 h, 5 µM / remaining at 24 h, 5 µM: read-out: Residual percentage (%)
Protocol: • (1) 199 µL of human plasma was added to the culture plate of each cell. The culture plate was preheated to 37°C, and kept at this temperature for 15 min. • (2) After preincubation, 1 µL of 1 mmol/L each test compound and 1 µL of 1 mmol/L control compound were added to 199 µL of plasma, so that a final concentration of each test compound was 5 µmol/L and that of the control compound was 5 µmol/L. The final concentration of the organic solvent was 0.5%. The experiment would be duplicated twice. • (3) Reaction samples were incubated at 37°C. • (4) The reaction was stopped by adding 600 µL of cold methanol containing the internal standard at 0, 1, 2, 6, and 24 h. Each sample was vortex mixed for 10 min, and then centrifuged at 3,220 g for 30 min to precipitate the protein. […] Based on the signal response and peak shapes of liquid chromatography-mass spectrometry (LC-MS), the supernatant would be diluted with ultrapure water.
All calculations were performed using Microsoft Excel. The peak area ratio was determined from the chromatogram of extracted ions. The percentage of compounds remaining at each time point was calculated as per the following formula: Residual percentagetmin (%) = peak area ratiotmin /peak areat0 × 100 [formula]

[3] = system: MDA-MB-468; experiment: Inhibition of proliferation of MDA-MB-468 cells by test compounds (CellTiter-Glo, 72 h); format: cell-based; conditions: MDA-MB-468, 72 h incubation
Protocol: 3: Test method • (1) Cell plating: first, tumor cells MDA-MB-468 were cultured using a corresponding culture medium, trypsinized, centrifuged, resuspended for counting, adjusted to an appropriate concentration, and then plated on a 384-well plate. • (2) Co-incubation of the compounds and tumor cells: after the cells adhered to the wall, 100 nL of a diluted bioactive substance (test compound) was added to the cell culture plate using ECHO, the final concentration of DMSO in wells of the cell plate was 0.33%, and the incubation was performed in an incubator at 37°C with […] for 72 h. • (3) After the incubation was complete, 30 µL of a CTG reagent (CelltiterGlo kit) was added to each well. The culture was oscillated on a fast oscillator for 2 min, centrifuged at 1,000 rpm for 1 min, and kept away from light at room temperature for 30 min. The chemiluminescence signal value was read using an Envision instrument. • (4) Cell viability detection: IC50 was calculated using GraphPad Prism 8 software, and the IC50 of the compounds was obtained using the following nonlinear fitting formula (see Table 2): • 6. Y=Bottom+(Top-Bottom)/(1+10^((LogIC50-X)*HillSlope)) • 7. […] Table 2 Antiproliferative activity of test compounds on MDA-MB-468

[4] = system: SK-BR-3; experiment: Inhibition of proliferation of SK-BR-3 cells by compounds (CellTiter-Glo, 72 h); format: cell-based; conditions: SK-BR-3, 72 h incubation
Protocol: 3: Test method (1) Cell plating: first, tumor cells SK-BR-3 were cultured using a corresponding culture medium, trypsinized, centrifuged, resuspended for counting, adjusted to an appropriate concentration, and then plated on a 384-well plate. (2) Co-incubation of the compounds and tumor cells: after the cells adhered to the wall, 100 nL of a diluted bioactive substance (test compound) was added to the cell culture plate using ECHO, the final concentration of DMSO in wells of the cell plate was 0.33%, and the incubation was performed in an incubator at 37°C with 5% CO2 for 72 h. (3) After the incubation was complete, 30 µL of a CTG reagent (CelltiterGlo kit) was added to each well. The culture was oscillated on a fast oscillator for 2 min, centrifuged at 1,000 rpm for 1 min, and kept away from light at room temperature for 30 min. The chemiluminescence signal value was read using an Envision instrument. (4) Cell viability detection: IC50 was calculated using GraphPad Prism 8 software, and the IC50 of the compounds was obtained using the following nonlinear fitting formula (see Table 1) : 1. Y=Bottom+(Top-Bottom)/(1+10^((LogIC50-X)*HillSlope)) 2. […] Table 1 Antiproliferative activity of test compounds on SK-BR-3

[5] = system: NCI-N87; experiment: Inhibition of proliferation of NCI-N87 cells by test compounds (CellTiter-Glo, 72 h); format: cell-based; conditions: NCI-N87, 72 h incubation
Protocol: 3: Test method (1) Cell plating: first, tumor cells NCI-N87 were cultured using a corresponding culture medium, trypsinized, centrifuged, resuspended for counting, adjusted to an appropriate concentration, and then plated on a 384-well plate. (2) Co-incubation of the compounds and tumor cells: after the cells adhered to the wall, 100 nL of a diluted bioactive substance (test compound) was added to the cell culture plate using ECHO, the final concentration of DMSO in wells of the cell plate was 0.33%, and the incubation was performed in an incubator at 37°C with […] for 72 h. (3) After the incubation was complete, 30 µL of a CTG reagent (CelltiterGlo kit) was added to each well. The culture was oscillated on a fast oscillator for 2 min, centrifuged at 1,000 rpm for 1 min, and kept away from light at room temperature for 30 min. The chemiluminescence signal value was read using an Envision instrument. (4) Cell viability detection: IC50 was calculated using GraphPad Prism 8 software, and the IC50 of the compounds was obtained using the following nonlinear fitting formula (see Table 3) : 11. Y=Bottom+(Top-Bottom)/(1+10^((LogIC50-X)*HillSlope)) 12. […] Table 3 Antiproliferative activity of test compounds on cells NCI-N87

Compound | remaining at 4 h, 5 µM [1] | Residual percentage (%) [2] | remaining at 1 h, 5 µM [2] | remaining at 2 h, 5 µM [2] | remaining at 6 h, 5 µM [2] | remaining at 24 h, 5 µM [2] | IC50 [3] | IC50 [4] | IC50 [5] | IC50 ([3]; Homo sapiens, MDA-MB-468, 72 h) | IC50 ([4]; Homo sapiens, SK-BR-3, 72 h) | IC50 ([5]; Homo sapiens, NCI-N87, 72 h)
CC[C@@]1(O)C(=O)OCc2c1cc1n(c2=O)Cc2c-1nc1cc(F)c(C)c3c1c2[C@@H](NC(=O)[C@@H](O)C1CC1)CCC3 [11-2, (S)-2-cyclopropyl-N-((1S,10S)-10-ethyl-6-fluoro-10-hydroxy-5-methyl-11,14-dioxo-1,2,3,4,10,11,14,16-octahydro-13H-cyclohepta[de]pyrano[3',4':6,7]indolizino[1,2-b]quinolin-1-yl)-2-hydroxyacetamide] | 93.4% | 100.00% | 96.8% | 92.1% | 94.5% | 88.8% |  |  |  |  |  | 
CC[C@@]1(O)C(=O)OCc2c1cc1n(c2=O)Cc2c-1nc1cc(F)c(C3CC3)c3c1c2C(NC(=O)C[C@@H](C)O)CC3 (single isomer, unassigned) [17-2] | 93.8% | 100.00% | 90.1% | 89.3% | 97.1% | 102% | 8.1 nM | 6.6 nM | 5.3 nM |  |  | 
CC[C@@]1(O)C(=O)OCc2c1cc1n(c2=O)Cc2c-1nc1cc(F)c(OC(F)F)c3c1c2C(NC(=O)C[C@@H](C)O)CC3 (stereo partly drawn) [5-2, (R)-N-((1R,9S)-4-(difluoromethoxy)-9-ethyl-5-fluoro-9-hydroxy-10,13-dioxo-2,3,9,10,13,15-hexahydro-1H,12H-benzo[de]pyrano[3',4',6,7]indolizino[1,2-b]quinolin-1-yl)-3-hydroxybutanamide] |  |  |  |  |  |  | 9.4 nM | 20 nM | 18 nM |  |  | 
CC[C@@]1(O)C(=O)OCc2c1cc1n(c2=O)Cc2c-1nc1cc(F)c(C3CC3)c3c1c2C(NC(=O)C[C@@H](C)O)CCC3 (single isomer, unassigned) [19-1] |  |  |  |  |  |  |  |  |  | 7.1 nM | 8.3 nM | 7.4 nM
CC[C@@]1(O)C(=O)OCc2c1cc1n(c2=O)Cc2c-1nc1cc(F)c(OC(F)F)c3c1c2C(NC(=O)C[C@@H](C)O)CC3 (stereo partly drawn) [5-1, (R)-N-((1S,9S)-4-(difluoromethoxy)-9-ethyl-5-fluoro-9-hydroxy-10,13-dioxo-2,3,9,10,13,15-hexahydro-1H,12H-benzo[de]pyrano[3',4',6,7]indolizino[1,2-b]quinolin-1-yl)-3-hydroxybutanamide] |  |  |  |  |  |  | 6.7 nM | 20 nM | 14 nM |  |  | 
CC[C@@]1(O)C(=O)OCc2c1cc1n(c2=O)Cc2c-1nc1cc(F)c(C)c3c1c2C(NC(=O)C[C@@H](C)O)CCC3 (single isomer, unassigned) [6-2] | 93.7% | 100.00% | 96.6% | 86.2% | 89% | 87% |  |  |  | 6.5 nM | 7.3 nM | 6.8 nM
CC[C@@]1(O)C(=O)OCc2c1cc1n(c2=O)Cc2c-1nc1cc(F)c(C)c3c1c2C(NC(=O)[C@H]1C[C@@H](O)C1)CCO3 (single isomer, unassigned) [25-2] |  |  |  |  |  |  | 18 nM | 19 nM | 40 nM |  |  | 
CC[C@@]1(O)C(=O)OCc2c1cc1n(c2=O)Cc2c-1nc1cc(F)c(C)c3c1c2[C@@H](NC(=O)[C@@H](O)C1CC1)CCO3 [35-2, (S)-2-cyclopropyl-N-((1S,10S)-10-ethyl-6-fluoro-10-hydroxy-5-methyl-11,14-dioxo-2,3,10,11,14,16-hexahydro-1H,13H-oxepino[4,3,2-de]pyrano[3',4':6,7]indolizino[1,2-b]quinolin-1-yl)-2-hydroxyacetamide] |  |  |  |  |  |  |  |  |  | 9 nM | 9 nM | 10 nM
CC[C@@]1(O)C(=O)OCc2c1cc1n(c2=O)Cc2c-1nc1cc(F)cc3c1c2C(NC(=O)C[C@@H](C)O)CC3 (stereo partly drawn) [4-2, (R)-N-((1R,9S)-9-ethyl-5-fluoro-9-hydroxy-10,13-dioxo-2,3,9,10,13,15-hexahydro-1H,12H-benzo[de]pyrano[3',4',6,7]indolizino[1,2-b]quinolin-1-yl)-3-hydroxybutanamide] |  |  |  |  |  |  | 13 nM | 14 nM | 22 nM |  |  | 
